This passage reports TGI results from PubChem BioAssay (NCI).

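All cell lines were grown in 96-well plates and treated with compound for 48 hours. TGI is the concentration that stops growth completely.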

Some test systems named below: HL-60(TB) leukemia; MALME-3M melanoma; NCI-H226 lung; COLO 205 colon; MDA-MB-435; UO-31 renal; LOX IMVI melanoma; SF-539 CNS; K-562 leukemia; HS 578T breast.
Assay in all cases: growth of human tumour cells (NCI), 48 h

`O=C(NCCO)c1c(O)c2ccccc2[nH]c1=O`: the TGI in the assay with HL-60(TB) leukemia, with MALME-3M melanoma, in the assay with NCI-H226 lung, in the assay with COLO 205 colon, with MDA-MB-435 and in the assay with UO-31 renal was over 100 µM in each case. Moreover, the TGI with LOX IMVI melanoma, with SF-539 CNS, in the assay on K-562 leukemia and in the assay with HS 578T breast was over 100 µM in each case.

Consider `Cc1ccc(O)c(Cc2nc3ccccc3nc2-c2cccc(Br)c2)c1`, for which the TGI with HL-60(TB) leukemia, in the assay with MALME-3M melanoma, in the assay on NCI-H226 lung, in the assay on COLO 205 colon, in the assay with MDA-MB-435 and in the assay on UO-31 renal was over 100 µM each time. The TGI is over 100 µM in the assay with LOX IMVI melanoma, over 100 µM in the assay with SF-539 CNS, over 100 µM with K-562 leukemia and 66.8 µM in the assay on HS 578T breast.
